Experimental data published in paper PMC4114533, “Synthesis, Anti-tubulin and Antiproliferative SAR of Steroidomimetic Dihydroisoquinolinones” (Chemmedchem, 2014).

Key:
[1] = tested on: CNS SF-539; experiment: NCI 60-cell line assay, SF-539; format: cell-based; conditions: CNSSF-539; NCI-60 panel, mean of three determinations
Experimental: (§1) Data from seven cell lines are presented along with the mean activity across the whole panel (MGM value). Screening was conducted at concentrations ranging from 10 nM upwards, with maximal activity (where a 50 % growth inhibition was obtained in all cell lines at a concentration of 10 nM) being indicated by an MGM value of 10 nM.

[2] = tested on: NCI 60-cell line panel; experiment: NCI 60-cell line assay, mean across whole panel (MGM); format: cell-based; conditions: NCI-60 panel
Experimental: as §1

[3] = tested on: Leukemia CCRF-CEM; experiment: NCI 60-cell line assay, CCRF-CEM; format: cell-based; conditions: Homo sapiens, NCI-60 panel, mean of three determinations
Experimental: as §1

[4] = tested on: Ovarian OVCAR-3; experiment: NCI 60-cell line assay, OVCAR-3; format: cell-based; conditions: Homo sapiens, NCI-60 panel, lowest concentration screened 10 nM
Experimental: as §1

[5] = tested on: DU-145 human prostate cancer cells; experiment: Antiproliferative assay (WST-1, 96 h), DU-145; format: cell-based; conditions: Homo sapiens; DU-145 cells, 96 h, WST-1, mean of three determinations
Experimental: (§2) Cell lines: DU-145 (brain metastasis carcinoma of the prostate) and MDA MB-231 (metastatic pleural effusion of breast adenocarcinoma) established human cell lines were obtained from ATCC Global Bioresource Center. Cells were maintained in a 5 % CO2 humidified atmosphere at 37 °C in RPMI-1640 medium, supplemented with 10 % fetal bovine serum, penicillin, (100 U mL^−1), and streptomycin (0.1 mg mL^−1). The effect of drugs on tubule formation was assessed using an angiogenesis kit (TCS-Cellworks).
(§3) Antiproliferative assays: DU-145 and MDA MB-231 cells were seeded into 96-well microtitre plates (5000 cells per well) and treated with compound (10^−9–10^−4 M) or with vehicle control. At 96 h post-treatment, live cell counts were determined by WST-1 cell proliferation assay (Roche, Penzberg, Germany), as per the manufacturer’s instructions. Viability results were expressed as a percentage of mean control values resulting in the calculation of the 50 % growth inhibition (GI50). All experiments were performed in triplicate.

[6] = tested on: Melanoma UACC-62; experiment: NCI 60-cell line assay, UACC-62; format: cell-based; conditions: Homo sapiens, NCI-60 panel, lowest concentration screened 10 nM
Experimental: as §1

[7] = tested on: Lung HOP-62; experiment: NCI 60-cell line assay, HOP-62; format: cell-based; conditions: Homo sapiens, NCI-60 panel, mean of three determinations
Experimental: as §1

[8] = tested on: Renal SN12-C; experiment: NCI 60-cell line assay, SN12-C; format: cell-based; conditions: Homo sapiens, SN12C; NCI-60 panel, mean of three determinations
Experimental: as §1

[9] = tested on: Bovine brain tubulin; experiment: Tubulin polymerisation (assembly) assay; format: biochemical; conditions: 10 μM tubulin, mean ±SD of at least two determinations; read-out: TP IC50 (tubulin polymerisation)
Experimental: (§4) Tubulin assays: Bovine brain tubulin, prepared as described previously,[16] was used in studies presented here. Assembly IC50 values were determined as described in detail elsewhere.[17] Briefly, 1.0 mg mL^−1 (10 μM) tubulin was pre-incubated without GTP with varying compound concentrations for 15 min at 30 °C. Reaction mixtures were placed on ice, and GTP (final concentration, 0.4 mM) was added. The reaction mixtures were transferred to cuvettes, held at 0 °C in a recording spectrophotometer. Baselines were established at 0 °C, and increase in turbidity was followed for 20 min following a rapid (<30 s) jump to 30 °C. Compound concentrations required to decrease the turbidity increase by 50 % were determined. The method for measuring inhibition of the binding of [^3H]colchicine to tubulin was described in detail previously.[18] Reaction mixtures contained 0.1 mg mL^−1 (1.0 μM) tubulin, 5.0 μM [^3H]colchicine, and potential inhibitor at 5.0 μM. […] A minimum of two experiments were performed with each compound.

[10] = target: T1, Bovine brain tubulin (Bos taurus, UniProt P81947+Q6B856); experiment: Inhibition of [3H]colchicine binding to tubulin; conditions: 5 μM inhibitor, 1.0 μM tubulin, 5.0 μM [3H]colchicine, mean ±SD; read-out: CB [% inhib.] 5 μM inhibitor
T1 construct: from tissue; host or cells: bovine brain
Experimental: as §4

[11] = tested on: Colon HCT-116; experiment: NCI 60-cell line assay, HCT-116; format: cell-based; conditions: Homo sapiens, NCI-60 panel, mean of three determinations
Experimental: as §1

[12] = tested on: MDA MB-231 human breast cancer cells; experiment: Antiproliferative assay (WST-1, 96 h), MDA MB-231; format: cell-based; conditions: MDA MB-231 cells, WST-1, mean of three determinations
Experimental: as §2, §3

T1 sequence (Q6B856 whole entry): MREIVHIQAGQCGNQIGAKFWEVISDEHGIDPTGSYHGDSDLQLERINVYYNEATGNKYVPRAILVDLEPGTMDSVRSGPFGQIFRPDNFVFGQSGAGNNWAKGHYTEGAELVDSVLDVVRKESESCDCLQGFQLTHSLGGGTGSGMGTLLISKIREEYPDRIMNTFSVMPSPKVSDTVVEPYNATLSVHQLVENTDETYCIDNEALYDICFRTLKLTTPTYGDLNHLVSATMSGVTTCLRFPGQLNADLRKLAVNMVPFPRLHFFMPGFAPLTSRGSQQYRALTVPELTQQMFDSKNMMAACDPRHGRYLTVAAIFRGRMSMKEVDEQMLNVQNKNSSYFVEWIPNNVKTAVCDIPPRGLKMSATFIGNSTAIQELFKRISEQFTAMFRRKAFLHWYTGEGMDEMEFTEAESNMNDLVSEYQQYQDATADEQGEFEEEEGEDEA
T1 sequence (P81947 whole entry): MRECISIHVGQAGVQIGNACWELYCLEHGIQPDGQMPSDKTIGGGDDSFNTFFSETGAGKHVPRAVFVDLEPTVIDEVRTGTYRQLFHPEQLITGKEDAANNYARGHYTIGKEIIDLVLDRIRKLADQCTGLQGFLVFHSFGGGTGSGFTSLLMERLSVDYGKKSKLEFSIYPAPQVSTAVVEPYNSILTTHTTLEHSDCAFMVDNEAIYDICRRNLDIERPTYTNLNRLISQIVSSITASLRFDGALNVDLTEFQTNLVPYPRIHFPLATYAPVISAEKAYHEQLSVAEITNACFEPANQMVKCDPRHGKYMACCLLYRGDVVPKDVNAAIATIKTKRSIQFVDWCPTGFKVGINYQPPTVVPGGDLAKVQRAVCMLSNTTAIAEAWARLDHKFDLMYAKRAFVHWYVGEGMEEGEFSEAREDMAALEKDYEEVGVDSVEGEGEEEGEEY

- GI50 [5]: 0.051 µM
- IC50 [9]: 1.3 ± 0.1 µM
- inhibition at 5 µM [10]: 83 ± 2%
- GI50 [12]: 0.071 µM
SMILES: COc1cc2c(cc1O)CCN(C(=O)c1cc(OC)c(OC)c(OC)c1)C2=O [16 g, 6-Hydroxy-7-methoxy-2-(3,4,5-trimethoxybenzoyl)-3,4-dihydroisoquinolin-1(2H)-one]
- GI50 [1]: 0.0102 µM
- mean activity in the NCI 60-cell line assay [2]: 33 nM
- MGM (mean concentration that caused 50 % growth inhibition in all 60 cell lines) ([2]; all 60 cell lines): 0.033 µM
- GI50 [3]: 0.0171 µM
- GI50 [4]: < 0.01 µM
- GI50 [6]: < 0.01 µM
- GI50 [7]: 0.0295 µM
- GI50 [8]: 0.056 µM
- GI50 [11]: 0.0216 µM
